Laboratory results reported in ChEMBL document CHEMBL1201862, “PubChem BioAssay data set” (2004).
Activity calls are given as the source filed them. Rule as the data show it, for most assays here: actives have a measured IC50 and inactives only a lower limit.

Experiments:
[1] = target: 26S proteasome non-ATPase regulatory subunit 14 (Homo sapiens, UniProt O00487); assay: inhibition of proteasome subunit RPN11 – biochemical, fluorescence polarization, uHTS hits, confirmation (AID 602368); format: functional
[2] = target: 72 kDa type IV collagenase (Homo sapiens, UniProt P08253); assay: Dose Response validation of uHTS RPN11 inhibitor hits using a MMP-2 Fluorescence assay.; format: functional
[3] = target: Prothrombin (Bos taurus, UniProt P00735); assay: thrombin inhibition, dose response, biochemical, fluorescence polarization, uHTS hits (AID 602369); format: functional
[4] = target: T1, Apoptotic protease-activating factor 1 (Homo sapiens, UniProt O14727); format: functional
T1 sequence (O14727 whole entry): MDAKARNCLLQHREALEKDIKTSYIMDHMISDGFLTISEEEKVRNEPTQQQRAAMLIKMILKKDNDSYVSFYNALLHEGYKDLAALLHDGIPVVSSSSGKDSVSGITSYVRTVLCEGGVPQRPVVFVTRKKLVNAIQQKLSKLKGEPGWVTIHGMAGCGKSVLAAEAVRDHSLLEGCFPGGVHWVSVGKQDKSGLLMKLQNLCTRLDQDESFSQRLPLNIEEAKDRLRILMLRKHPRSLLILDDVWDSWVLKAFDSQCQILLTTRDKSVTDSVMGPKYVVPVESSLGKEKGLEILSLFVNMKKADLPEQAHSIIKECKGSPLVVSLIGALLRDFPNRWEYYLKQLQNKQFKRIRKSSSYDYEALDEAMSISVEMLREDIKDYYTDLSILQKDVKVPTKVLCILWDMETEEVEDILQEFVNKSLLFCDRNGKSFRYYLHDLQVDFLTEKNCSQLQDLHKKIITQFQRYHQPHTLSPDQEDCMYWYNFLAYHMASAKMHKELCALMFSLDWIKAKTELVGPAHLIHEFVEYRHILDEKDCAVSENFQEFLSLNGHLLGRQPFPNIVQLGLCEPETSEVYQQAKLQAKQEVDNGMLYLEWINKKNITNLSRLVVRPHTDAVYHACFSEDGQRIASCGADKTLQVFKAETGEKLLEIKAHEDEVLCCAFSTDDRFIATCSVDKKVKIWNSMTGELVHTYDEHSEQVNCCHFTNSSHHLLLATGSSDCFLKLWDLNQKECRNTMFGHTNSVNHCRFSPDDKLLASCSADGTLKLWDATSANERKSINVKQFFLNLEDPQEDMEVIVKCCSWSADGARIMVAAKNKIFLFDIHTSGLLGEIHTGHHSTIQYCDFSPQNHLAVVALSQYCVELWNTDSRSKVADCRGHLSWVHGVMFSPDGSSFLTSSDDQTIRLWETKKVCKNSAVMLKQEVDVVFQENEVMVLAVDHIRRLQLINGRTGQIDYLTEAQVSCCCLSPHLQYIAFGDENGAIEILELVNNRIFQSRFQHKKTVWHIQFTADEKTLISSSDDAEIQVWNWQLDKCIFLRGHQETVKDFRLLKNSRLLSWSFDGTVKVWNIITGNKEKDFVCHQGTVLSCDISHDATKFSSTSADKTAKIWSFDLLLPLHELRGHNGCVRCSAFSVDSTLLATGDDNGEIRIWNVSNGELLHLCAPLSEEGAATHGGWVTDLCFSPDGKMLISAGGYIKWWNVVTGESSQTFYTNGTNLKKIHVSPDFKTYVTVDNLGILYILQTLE

[5] = test system: INS1; assay: beta cell apoptosis inhibitors, cytokine rescue, dose response, luminescence, retest (AID 449756); format: functional, cell-based; conditions: Rattus norvegicus;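 also: cell death triggered by IL-1 beta plus TNF-alpha plus IFN-gamma mixture; protective hits raise ATP signal compared with cytokine alone wells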
[6] = target: T2, Tyrosyl-DNA phosphodiesterase 2 (Homo sapiens, UniProt O95551); assay: human TDP2 enzyme inhibitors, dose response, biochemical, epi absorbance, IC50 (AID 743297)
T2 sequence (O95551 whole entry): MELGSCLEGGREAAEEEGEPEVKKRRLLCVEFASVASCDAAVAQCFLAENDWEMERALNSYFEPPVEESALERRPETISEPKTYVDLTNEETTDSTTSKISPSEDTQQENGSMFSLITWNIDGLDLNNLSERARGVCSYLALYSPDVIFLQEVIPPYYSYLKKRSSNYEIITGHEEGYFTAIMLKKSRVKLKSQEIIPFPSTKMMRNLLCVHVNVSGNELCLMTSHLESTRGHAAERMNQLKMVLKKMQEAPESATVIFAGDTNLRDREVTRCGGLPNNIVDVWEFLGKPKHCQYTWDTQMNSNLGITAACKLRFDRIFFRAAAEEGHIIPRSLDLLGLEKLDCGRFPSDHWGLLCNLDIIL

[7] = target: T3, Caspase-3 (Homo sapiens, UniProt P42574); format: functional
T3 sequence (P42574 whole entry): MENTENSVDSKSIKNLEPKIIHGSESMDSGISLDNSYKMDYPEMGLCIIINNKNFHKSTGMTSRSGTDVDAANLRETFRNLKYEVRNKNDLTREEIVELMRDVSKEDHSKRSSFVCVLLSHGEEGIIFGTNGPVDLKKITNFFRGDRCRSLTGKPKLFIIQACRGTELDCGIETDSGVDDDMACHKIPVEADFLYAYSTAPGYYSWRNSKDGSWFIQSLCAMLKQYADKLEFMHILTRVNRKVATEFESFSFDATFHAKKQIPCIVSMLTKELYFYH

[8] = target: T4, Sentrin-specific protease 7 (Homo sapiens, UniProt Q9BQF6); format: functional;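 also: Luminescence-based dose-response confirmation of ultra-high-throughput screening hits, measuring inhibition of SENP7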
T4 sequence (Q9BQF6 whole entry): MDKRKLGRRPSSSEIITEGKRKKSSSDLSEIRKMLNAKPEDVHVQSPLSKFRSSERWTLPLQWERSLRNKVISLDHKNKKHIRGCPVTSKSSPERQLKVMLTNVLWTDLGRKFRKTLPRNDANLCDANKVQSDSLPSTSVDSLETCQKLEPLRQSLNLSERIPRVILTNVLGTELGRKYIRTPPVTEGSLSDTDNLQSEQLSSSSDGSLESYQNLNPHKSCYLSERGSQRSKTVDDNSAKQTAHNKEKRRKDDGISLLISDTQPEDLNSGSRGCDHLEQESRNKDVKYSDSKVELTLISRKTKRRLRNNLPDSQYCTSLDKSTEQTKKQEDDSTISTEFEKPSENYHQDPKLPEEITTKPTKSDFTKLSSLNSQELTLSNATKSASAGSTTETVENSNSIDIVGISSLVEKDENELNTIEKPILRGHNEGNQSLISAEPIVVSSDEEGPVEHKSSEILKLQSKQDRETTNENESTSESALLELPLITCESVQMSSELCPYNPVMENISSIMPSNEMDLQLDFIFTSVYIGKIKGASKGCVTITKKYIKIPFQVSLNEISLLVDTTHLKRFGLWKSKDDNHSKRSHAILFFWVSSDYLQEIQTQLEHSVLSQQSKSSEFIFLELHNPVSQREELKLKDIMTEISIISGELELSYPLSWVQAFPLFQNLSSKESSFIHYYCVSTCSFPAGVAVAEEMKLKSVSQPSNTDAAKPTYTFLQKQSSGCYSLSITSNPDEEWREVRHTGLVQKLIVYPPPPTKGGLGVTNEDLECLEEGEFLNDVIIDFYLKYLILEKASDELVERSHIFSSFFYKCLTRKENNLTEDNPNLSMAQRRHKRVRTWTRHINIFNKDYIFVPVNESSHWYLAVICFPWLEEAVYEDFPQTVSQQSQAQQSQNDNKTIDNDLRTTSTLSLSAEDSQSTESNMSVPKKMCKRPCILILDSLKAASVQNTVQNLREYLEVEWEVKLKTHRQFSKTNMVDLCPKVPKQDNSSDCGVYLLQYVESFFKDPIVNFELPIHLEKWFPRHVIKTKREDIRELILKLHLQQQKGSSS

[9] = target: T5, Sentrin-specific protease 6 (Homo sapiens, UniProt Q9GZR1); format: functional
T5 sequence (Q9GZR1 whole entry): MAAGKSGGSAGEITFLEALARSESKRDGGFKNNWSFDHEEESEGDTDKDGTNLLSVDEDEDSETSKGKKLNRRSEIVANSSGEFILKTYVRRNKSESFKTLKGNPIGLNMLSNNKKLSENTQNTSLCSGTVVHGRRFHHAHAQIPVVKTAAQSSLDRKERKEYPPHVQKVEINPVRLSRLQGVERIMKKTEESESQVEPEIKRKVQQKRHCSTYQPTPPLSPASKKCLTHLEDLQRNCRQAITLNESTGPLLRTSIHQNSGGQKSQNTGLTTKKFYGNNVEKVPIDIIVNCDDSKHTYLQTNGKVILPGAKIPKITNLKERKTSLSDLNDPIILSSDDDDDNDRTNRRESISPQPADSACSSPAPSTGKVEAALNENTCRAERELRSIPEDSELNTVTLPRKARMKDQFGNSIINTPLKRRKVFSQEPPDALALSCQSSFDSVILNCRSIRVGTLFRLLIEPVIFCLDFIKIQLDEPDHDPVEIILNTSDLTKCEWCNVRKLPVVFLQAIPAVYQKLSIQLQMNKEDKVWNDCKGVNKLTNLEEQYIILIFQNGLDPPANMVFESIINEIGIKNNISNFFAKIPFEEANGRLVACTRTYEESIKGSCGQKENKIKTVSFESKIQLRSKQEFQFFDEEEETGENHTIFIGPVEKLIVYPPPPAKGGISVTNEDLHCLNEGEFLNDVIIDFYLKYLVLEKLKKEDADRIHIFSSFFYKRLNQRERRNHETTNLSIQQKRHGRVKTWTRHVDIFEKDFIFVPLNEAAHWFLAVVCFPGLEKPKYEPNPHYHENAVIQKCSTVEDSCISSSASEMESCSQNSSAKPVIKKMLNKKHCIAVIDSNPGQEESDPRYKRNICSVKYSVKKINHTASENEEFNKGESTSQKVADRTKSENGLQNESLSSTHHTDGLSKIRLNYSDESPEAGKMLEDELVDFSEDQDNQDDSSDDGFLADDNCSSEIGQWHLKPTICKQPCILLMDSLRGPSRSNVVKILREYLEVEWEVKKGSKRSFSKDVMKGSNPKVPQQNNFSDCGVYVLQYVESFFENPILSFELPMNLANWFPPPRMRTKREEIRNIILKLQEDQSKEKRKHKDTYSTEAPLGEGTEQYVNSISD

[10] = target: T6, Sentrin-specific protease 8 (Homo sapiens, UniProt Q96LD8); format: functional;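 also: luminescence read-out of SENP8 inhibition, dose-response confirmation following an ultra-high-throughput screen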
T6 sequence (Q96LD8 whole entry): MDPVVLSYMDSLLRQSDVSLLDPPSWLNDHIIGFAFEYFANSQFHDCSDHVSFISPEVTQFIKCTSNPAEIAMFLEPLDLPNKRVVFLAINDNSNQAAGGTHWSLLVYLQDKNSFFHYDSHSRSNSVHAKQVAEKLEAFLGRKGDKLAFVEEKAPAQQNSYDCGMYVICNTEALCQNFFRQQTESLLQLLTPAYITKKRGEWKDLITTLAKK

[11] = target: T6, Sentrin-specific protease 8; assay: SENP8 protease inhibitors, SAR follow-up, biochemical, luminescence (AID 504501); format: functional
[12] = target: T3, Caspase-3; assay: SAR Analysis of small molecule inhibitors of Sentrin-specific proteases (SENPs) using a Caspase-3 Selectivity assay. [Related pubchem assays (depositor defined):AID2540, AID2599, AID434973, AID489001]; format: functional
[13] = target: T5, Sentrin-specific protease 6; assay: SAR Analysis of small molecule inhibitors of Sentrin-specific protease 6 (SENP6) using a Luminescent assay. [Related pubchem assays (depositor defined):AID2582, AID2599]; format: functional
[14] = target: T4, Sentrin-specific protease 7; assay: SENP7 protease inhibitors, SAR follow-up, biochemical, luminescence (AID 504497); format: functional
[15] = target: Phospholipase A2 (Homo sapiens, UniProt P04054); format: functional;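 also: confirmatory dose-response counterscreen on phospholipase A2, testing hits that came from an ultra-high-throughput screen for ATG4B inhibitors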
[16] = target: Induced myeloid leukemia cell differentiation protein Mcl-1 (Homo sapiens, UniProt Q07820); format: functional
[17] = target: Glucose-6-phosphate 1-dehydrogenase (Homo sapiens, UniProt P11413); assay: human G6PD enzyme inhibitors, dose response, selectivity assay for P. falciparum G6PD inhibitor project, biochemical, fluorescence (AID 504792); format: functional
[18] = test system: Vero; assay: Vero cell cytotoxicity, cytotoxicity control for flavivirus capping enzyme inhibitors (AID 588742); format: functional; conditions: Chlorocebus sabaeus
[19] = target: Genome polyprotein (dengue virus type 2, UniProt P29990); assay: Dengue-2 NS5 methyltransferase inhibitors, primary screen, biochemical, confirmation dose response (AID 588689); format: functional
Genome polyprotein, sequence (P29990 2492-3391 limits assumed): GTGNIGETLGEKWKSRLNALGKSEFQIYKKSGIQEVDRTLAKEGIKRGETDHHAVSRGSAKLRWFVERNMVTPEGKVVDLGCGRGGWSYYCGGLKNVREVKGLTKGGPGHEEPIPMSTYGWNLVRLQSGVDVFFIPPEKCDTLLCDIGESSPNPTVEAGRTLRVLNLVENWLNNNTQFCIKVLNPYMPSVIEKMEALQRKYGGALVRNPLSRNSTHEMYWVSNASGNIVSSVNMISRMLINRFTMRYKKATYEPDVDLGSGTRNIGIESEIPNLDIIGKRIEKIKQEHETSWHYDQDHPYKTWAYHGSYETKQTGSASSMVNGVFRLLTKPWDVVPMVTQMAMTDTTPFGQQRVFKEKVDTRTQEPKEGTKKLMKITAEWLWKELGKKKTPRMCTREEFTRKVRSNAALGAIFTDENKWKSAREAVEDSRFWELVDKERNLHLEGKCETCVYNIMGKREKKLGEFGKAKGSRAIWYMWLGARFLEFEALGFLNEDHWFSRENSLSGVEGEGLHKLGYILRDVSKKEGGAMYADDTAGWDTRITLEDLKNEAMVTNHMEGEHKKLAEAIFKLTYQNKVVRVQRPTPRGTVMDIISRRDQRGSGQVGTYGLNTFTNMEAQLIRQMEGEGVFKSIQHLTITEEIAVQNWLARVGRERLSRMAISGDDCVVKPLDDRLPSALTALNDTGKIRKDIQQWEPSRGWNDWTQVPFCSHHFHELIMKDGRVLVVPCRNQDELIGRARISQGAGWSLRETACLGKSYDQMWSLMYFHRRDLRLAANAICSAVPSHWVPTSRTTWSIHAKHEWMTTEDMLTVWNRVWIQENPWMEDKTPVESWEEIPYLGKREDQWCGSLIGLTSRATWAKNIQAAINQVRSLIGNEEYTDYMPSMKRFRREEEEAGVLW

Induced myeloid leukemia cell differentiation protein Mcl-1, sequence (Q07820 whole entry): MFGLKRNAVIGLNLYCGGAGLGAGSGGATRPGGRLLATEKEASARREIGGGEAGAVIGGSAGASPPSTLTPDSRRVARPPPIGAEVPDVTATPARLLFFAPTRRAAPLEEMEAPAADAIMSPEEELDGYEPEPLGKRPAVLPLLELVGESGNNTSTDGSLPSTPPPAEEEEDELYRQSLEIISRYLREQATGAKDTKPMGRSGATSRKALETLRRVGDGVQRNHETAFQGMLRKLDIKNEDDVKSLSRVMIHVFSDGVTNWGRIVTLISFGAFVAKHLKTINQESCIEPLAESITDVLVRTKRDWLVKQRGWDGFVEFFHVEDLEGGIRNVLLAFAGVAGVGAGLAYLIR
Phospholipase A2, sequence (P04054 whole entry): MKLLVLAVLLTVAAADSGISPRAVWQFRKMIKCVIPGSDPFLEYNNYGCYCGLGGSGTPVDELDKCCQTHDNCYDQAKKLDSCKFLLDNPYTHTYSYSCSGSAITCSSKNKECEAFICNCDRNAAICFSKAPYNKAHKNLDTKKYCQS
26S proteasome non-ATPase regulatory subunit 14, sequence (O00487 whole entry): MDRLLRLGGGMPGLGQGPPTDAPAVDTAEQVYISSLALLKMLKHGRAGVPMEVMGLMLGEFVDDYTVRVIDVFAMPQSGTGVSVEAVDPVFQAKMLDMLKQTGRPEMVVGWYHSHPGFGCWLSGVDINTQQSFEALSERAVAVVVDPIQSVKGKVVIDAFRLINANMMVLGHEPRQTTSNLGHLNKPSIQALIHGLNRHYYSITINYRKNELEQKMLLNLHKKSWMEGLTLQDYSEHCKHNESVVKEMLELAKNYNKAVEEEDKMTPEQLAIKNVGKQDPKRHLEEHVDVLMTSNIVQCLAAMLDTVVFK
72 kDa type IV collagenase, sequence (P08253 whole entry): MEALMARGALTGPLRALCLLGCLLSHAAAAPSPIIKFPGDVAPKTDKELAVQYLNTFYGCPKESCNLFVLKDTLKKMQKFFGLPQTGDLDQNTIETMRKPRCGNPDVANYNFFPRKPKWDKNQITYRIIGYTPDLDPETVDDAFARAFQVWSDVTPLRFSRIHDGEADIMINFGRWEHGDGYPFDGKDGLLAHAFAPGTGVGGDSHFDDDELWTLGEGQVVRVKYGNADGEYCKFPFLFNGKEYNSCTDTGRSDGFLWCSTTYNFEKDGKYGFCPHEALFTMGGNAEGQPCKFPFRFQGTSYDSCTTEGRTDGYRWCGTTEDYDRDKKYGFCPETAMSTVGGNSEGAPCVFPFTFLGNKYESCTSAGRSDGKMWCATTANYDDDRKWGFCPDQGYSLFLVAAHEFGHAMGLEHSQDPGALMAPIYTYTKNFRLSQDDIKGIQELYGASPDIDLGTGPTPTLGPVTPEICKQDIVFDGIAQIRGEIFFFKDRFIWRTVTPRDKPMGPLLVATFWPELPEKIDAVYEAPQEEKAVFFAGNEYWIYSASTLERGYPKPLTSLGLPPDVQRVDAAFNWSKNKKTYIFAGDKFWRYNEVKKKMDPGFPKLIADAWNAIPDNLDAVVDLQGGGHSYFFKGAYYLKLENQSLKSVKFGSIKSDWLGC
Glucose-6-phosphate 1-dehydrogenase, sequence (P11413 whole entry): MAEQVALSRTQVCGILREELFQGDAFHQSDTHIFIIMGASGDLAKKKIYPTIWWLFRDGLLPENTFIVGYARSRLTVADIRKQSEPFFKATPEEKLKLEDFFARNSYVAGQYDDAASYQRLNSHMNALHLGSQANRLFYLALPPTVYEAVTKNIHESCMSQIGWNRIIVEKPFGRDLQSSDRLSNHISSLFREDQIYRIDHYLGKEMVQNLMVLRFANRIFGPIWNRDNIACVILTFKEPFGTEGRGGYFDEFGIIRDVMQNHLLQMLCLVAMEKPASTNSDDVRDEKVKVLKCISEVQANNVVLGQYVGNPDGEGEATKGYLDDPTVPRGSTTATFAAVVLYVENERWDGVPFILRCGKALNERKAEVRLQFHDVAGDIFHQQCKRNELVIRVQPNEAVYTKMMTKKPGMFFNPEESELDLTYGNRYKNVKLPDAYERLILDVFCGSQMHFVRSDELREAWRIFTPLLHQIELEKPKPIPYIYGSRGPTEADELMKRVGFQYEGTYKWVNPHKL

SMILES	IC50 [4]	IC50 [11]	IC50 [12]	IC50 [13]	IC50 [14]	further results
CC(/C=C1\SC(=S)N(CCC(=O)Nc2cccc(C(=O)O)c2)C1=O)=C\c1ccccc1						IC50 [1]: 47.4 µM (active); IC50 [2]: 64.9 µM (active); IC50 [3]: 73.5 µM (active)
Nc1ccc2nn(-c3cccc4ccccc34)nc2c1	50 µM (active)					AC50 [5]: 12.6 µM (active); IC50 [6]: > 128 µM (inactive)
COc1ccccc1N1CCN(C(c2cccs2)C(C)NS(=O)(=O)c2ccccc2)CC1 (centres undefined)	10 µM (active)					
O=C(Nc1nc2ccccc2s1)c1ccc(Cl)s1		2.55 µM (active)	3.28 µM (active)	2.83 µM (active)	1.35 µM (active)	IC50 [7]: 10.5 µM (active); IC50 [8]: 2.16 µM (active); IC50 [9]: > 100 µM (inactive); IC50 [10]: 1.56 µM (active)
N#Cc1c(-c2cccc(Br)c2)cc(-c2ccco2)[nH]c1=O						IC50 [15]: 11.7 µM (active)
COc1cc(OC)cc(C(=O)Nc2ccc3ccccc3c2)c1		7.8 µM (active)	8.7 µM (active)	7 µM (active)	2.86 µM (active)	
COc1cc(OC)cc(-c2noc(/C=C/c3ccccc3)n2)c1		> 99 µM (inactive)	59 µM (active)	> 99 µM (inactive)	21.4 µM (active)	
Cc1cc(C)c(S(=O)(=O)/N=C2/C=C(SCC(=O)O)C(=O)c3ccccc32)cc1C	12.6 µM (active)					IC50 [16]: 7.55 µM (active); IC50 [17]: 30.2 µM (inactive); CC50 [18]: 37.5 µM (active); IC50 [19]: > 100 µM (active)
